Drawing on patent publication US10766869B2, “Triazoles for the treatment of demyelinating dieases” (Vertex Pharmaceuticals Incorporated, priority 2015, dated 2020), this text covers fold induction for eleven molecules.

For the assay, the system named is primary rat mixed cortical cells. The assay is described as follows: In vitro myelination assay (MBP positive myelin strands, fold myelin pixels above background). It is filed as cell-based. The settings on record: Rattus norvegicus; for fold induction at 1 µM: 1.0 μM compound; for fold induction at 10 µM: 10.0 μM compound. The text has this:
In Vitro Myelination Assay
Compounds were screened for their ability to induce myelination using a primary rat mixed cortical cell culture assay, which contains neurons, oligodendrocyte precursor cells, oligodendrocytes, astrocytes and microglia. The assay quantifies myelination by measuring myelin basic protein (MBP) immunofluorescent positive myelin strands from images taken using a Cellomics Array Scan (model Arrayscan VTI HCS Reader) or a Molecular Devices Image Xpress (model IXM XL) high content imager. The myelin strands were quantitated using a custom created myelin detection software program. Test compounds were dissolved in DMSO to make a 10 mM initial stock solution. Dilutions were made in myelination medium to obtain the final solutions for the assay and were tested in primary rat mixed cortical cells at selected doses.
Primary rat mixed cortical cells were prepared from harvested cerebral cortices from postnatal day 1 (P1) rats (P1 Rat CD® IGS pups) were purchased from Charles River) in Complete Dissociation Medium, wherein the meninges were removed and the cortical tissue chopped with a razor blade into ˜1 mm^3 pieces. Tissue from 1-3 pups was collected and placed into 15 ml conical tubes in a total volume of 5 ml of Complete Dissociation Medium. Activated papain (3 ml) was added to each 15 ml conical tube and tissue was incubated at 37° C. for 30 minutes. After the 30 minute incubation, DNase (Sigma D4527; 75 μl of a 1 mg/ml stock) was added to each tube, followed by mechanical trituration using a 2 ml serological pipette and autopipettor to gently dissociate the tissue. Following trituration, larger tissue pieces were allowed to settle by gravity, and the supernatant containing dissociated cells was transferred to a 50 ml conical tube with 4 ml of trypsin inhibitor. Cells were pelleted by centrifugation, resuspended in myelination medium and filtered through a 40 μm filter. Cells were then seeded in 96-well plates (BD Biosciences, Black, PDL-coated, Cat. No. 356640) at 87,500-95,000 cells/well in a final volume of 200 μl of Myelination Medium in the presence or absence of compound and cultured for 14 days in a humidified 37° C. incubator with 5% CO2. Half the medium was removed and replaced with fresh medium containing 1× compound on days 6 and 10. Using a Biotek automatic plate washer (model Biomek® FXP Laboratory Automation Workstation), cells were fixed with 4% paraformaldehyde on day 14, washed with PBS and blocked in 5% normal goat serum (Vector Laboratories, S-1000) in 0.1% PBS-TritonX-100 (PBST) for 1 hour. Cells were stained with 1:500 anti-MBP (Covance, cat # SMI99) primary antibody in 1% normal goat serum in 0.1% PBST for 2 hours at room temperature followed by 2 washes with PBST. A final incubation in secondary antibody (1:1000, Invitrogen, Alexa-488 anti-mouse IgG2b) and 1:10,000 Hoechst dye in 1% normal goat serum in 0.1% PBST was performed for 2 hours at room temperature. Plates were washed with PBS and then scanned on a Cellomics Array Scan using a 10× objective (25 images per well) or the Image Xpress using a 10× objective (9 image per well). Images were analyzed using Vertex myelin detection software (described below) to quantify total MBP myelin pixels per well. Fold myelin pixels above background at two concentrations (1.0 μM and 10.0 μM) relative to baseline of no added compound are reported below in Table 4. Standard deviation for each compound concentration was calculated using all replicates and using a standard deviation formula commonly used in the art.
One of skill in the art would recognize that for this type of primary neuronal mixed cell assay variability between different assay runs is to be expected even though the protocol is the same for each assay run. For instance, variability may be due to small differences in cell viability, cell density, age of the animals, etc.
Vertex Myelin Detection Software: […]

[1] abbreviates: relative to baseline of no added compound, read-out: Fold myelin pixels above background.
Where [2] appears, read: relative to baseline of no added compound, read-out: Fold myelin pixels above background, 1.0 μM.
Where [3] appears, read: relative to baseline of no added compound, read-out: Fold myelin pixels above background, 10.0 μM.
[4] abbreviates: read-out: Fold myelin pixels above background relative to baseline of no added compound.

Like-named read-outs stand apart in the source and are kept apart here.

For `Cc1cc(Nc2ncn(-c3ccccc3C)n2)cc(N2CCN(C3COC3)CC2)c1` [Compound 414, N-[3-methyl-5-[4-(oxetan-3-yl)piperazin-1-yl]phenyl]-1-(o-tolyl)-1,2,4-triazol-3-amine], under setting [1], the fold induction at 1 µM lay within 1 to 10 and the fold induction at 10 µM lay within 100 to 1000.

Take `Cc1cc(Nc2ncn(-c3ccncc3)n2)cc(N2CCOCC2)c1` [Compound 84, N-(3-methyl-5-morpholino-phenyl)-1-(4-pyridyl)-1,2,4-triazol-3-amine]: under setting [2], the fold induction at 1 µM lay within 1000 to 10000. The fold induction at 10 µM under setting [3] was 10 to 100.

In the case of `Cc1cc(Nc2ncn(-c3cc(F)cc(F)c3)n2)cc(NC2CCCCC2N2CCOCC2)c1` (stereo not shown) [Compound 939, N3-[1-(3,5-difluorophenyl)-1,2,4-triazol-3-yl]-5-methyl-N1-(2-morpholinocyclohexyl)benzene-1,3-diamine], under setting [4], the fold induction at 1 µM fell in the range of 1 to 10 and the fold induction at 10 µM is at most 1.

As to `Fc1cc(F)cc(-n2cnc(Nc3cc(C4COC4)cc(N4CCN(C5COC5)CC4)c3)n2)c1` [Compound 313, 1-(3,5-difluorophenyl)-N-[3-(oxetan-3-yl)-5-[4-(oxetan-3-yl)piperazin-1-yl]phenyl]-1,2,4-triazol-3-amine], the fold induction at 1 µM under setting [2] lay in the range of 1 to 10. Besides, the fold induction at 10 µM under setting [3] is 100 to 1000.

In the case of `CCN(C)Cc1cc(F)cc(-n2cnc(Nc3cc(C)cc(N4CCN(C5COC5)CC4)c3)n2)c1` [Compound 187, 1-[3-[[ethyl(methyl)amino]methyl]-5-fluoro-phenyl]-N-[3-methyl-5-[4-(oxetan-3-yl)piperazin-1-yl]phenyl]-1,2,4-triazol-3-amine], the fold induction at 1 µM under setting [2] was in the range of 100 to 1000. The fold induction at 10 µM under setting [3] is at most 1.

Regarding `Fc1cc(Nc2ncn(-c3ccccn3)n2)cc(N2CCN(C3COC3)CC2)c1` [Compound 642, N-[3-fluoro-5-[4-(oxetan-3-yl)piperazin-1-yl]phenyl]-1-(2-pyridyl)-1,2,4-triazol-3-amine], under setting [1], the fold induction at 1 µM lay in the range of 1 to 10 and the fold induction at 10 µM is 10 to 100.

As for `COCC1CCN(c2cc(C(F)(F)F)cc(Nc3ncn(-c4cc(F)cc(F)c4)n3)n2)CC1` [Compound 839, N-[1-(3,5-difluorophenyl)-1,2,4-triazol-3-yl]-6-[4-(methoxymethyl)-1-piperidyl]-4-(trifluoromethyl)pyridin-2-amine], under setting [4], the fold induction at 1 µM is 1 to 10 and the fold induction at 10 µM was at most 1.

On to `Cc1cc(Nc2ncn(-c3cc(F)cc(F)c3)n2)cc(N2CCC3(COC3)C2)c1` [Compound 444, 1-(3,5-difluorophenyl)-N-[3-methyl-5-(2-oxa-7-azaspiro[3.4]octan-7-yl)phenyl]-1,2,4-triazol-3-amine], for which, under setting [1], the fold induction at 1 µM is at most 1 and the fold induction at 10 µM lay in the range of 1 to 10.

Take `Fc1ccc(-n2cnc(Nc3cc(C(F)F)cc(N4CCN(C5COC5)CC4)n3)n2)cc1` [Compound 806, 4-(difluoromethyl)-N-[1-(4-fluorophenyl)-1,2,4-triazol-3-yl]-6-[4-(oxetan-3-yl)piperazin-1-yl]pyridin-2-amine]: under setting [4], the fold induction at 1 µM lay in the range of 1 to 10 and the fold induction at 10 µM was at most 1.

For `Cc1cc(Nc2ncn(-c3cc(F)cc(F)c3)n2)cc(N2CC(C)(N3CCOCC3)C2)c1` [Compound 683, 1-(3,5-difluorophenyl)-N-[3-methyl-5-(3-methyl-3-morpholino-azetidin-1-yl)phenyl]-1,2,4-triazol-3-amine], under setting [1], the fold induction at 1 µM fell in the range of 10 to 100 and the fold induction at 10 µM lay in the range of 10 to 100.

`Cc1cc(Nc2ncn(-c3cc(F)cc(F)c3)n2)cc(N2CCN(CC(C)(C)O)C(C)C2)c1` (stereo not shown) [Compound 941, 1-[4-[3-[[1-(3,5-difluorophenyl)-1,2,4-triazol-3-yl]amino]-5-methyl-phenyl]-2-methyl-piperazin-1-yl]-2-methyl-propan-2-ol]: under setting [4], the fold induction at 1 µM lay within 1 to 10 and the fold induction at 10 µM was in the range of 1 to 10.
